Experimental data as given in ChEMBL document CHEMBL5518206, “Hit-to-Lead Identification and Validation of a Triaromatic Pleuromutilin Antibiotic Candidate” (J Med Chem, 2024).
Calls of active or inactive are those of the source. No cut-off for these calls is given here.

Tests used:
[1] = target: Cytochrome P450 3A4 (Homo sapiens, UniProt P08684); test: Inhibition of CYP3A4 in pooled human liver microsomes using midazolam as substrate; format: ADME, Microsome
[2] = target: Voltage-gated inwardly rectifying potassium channel KCNH2 (Homo sapiens, UniProt Q12809); test: Inhibition of K+ ion channel activity of hERG; format: toxicity
Sequence of Voltage-gated inwardly rectifying potassium channel KCNH2 (Q12809 whole entry): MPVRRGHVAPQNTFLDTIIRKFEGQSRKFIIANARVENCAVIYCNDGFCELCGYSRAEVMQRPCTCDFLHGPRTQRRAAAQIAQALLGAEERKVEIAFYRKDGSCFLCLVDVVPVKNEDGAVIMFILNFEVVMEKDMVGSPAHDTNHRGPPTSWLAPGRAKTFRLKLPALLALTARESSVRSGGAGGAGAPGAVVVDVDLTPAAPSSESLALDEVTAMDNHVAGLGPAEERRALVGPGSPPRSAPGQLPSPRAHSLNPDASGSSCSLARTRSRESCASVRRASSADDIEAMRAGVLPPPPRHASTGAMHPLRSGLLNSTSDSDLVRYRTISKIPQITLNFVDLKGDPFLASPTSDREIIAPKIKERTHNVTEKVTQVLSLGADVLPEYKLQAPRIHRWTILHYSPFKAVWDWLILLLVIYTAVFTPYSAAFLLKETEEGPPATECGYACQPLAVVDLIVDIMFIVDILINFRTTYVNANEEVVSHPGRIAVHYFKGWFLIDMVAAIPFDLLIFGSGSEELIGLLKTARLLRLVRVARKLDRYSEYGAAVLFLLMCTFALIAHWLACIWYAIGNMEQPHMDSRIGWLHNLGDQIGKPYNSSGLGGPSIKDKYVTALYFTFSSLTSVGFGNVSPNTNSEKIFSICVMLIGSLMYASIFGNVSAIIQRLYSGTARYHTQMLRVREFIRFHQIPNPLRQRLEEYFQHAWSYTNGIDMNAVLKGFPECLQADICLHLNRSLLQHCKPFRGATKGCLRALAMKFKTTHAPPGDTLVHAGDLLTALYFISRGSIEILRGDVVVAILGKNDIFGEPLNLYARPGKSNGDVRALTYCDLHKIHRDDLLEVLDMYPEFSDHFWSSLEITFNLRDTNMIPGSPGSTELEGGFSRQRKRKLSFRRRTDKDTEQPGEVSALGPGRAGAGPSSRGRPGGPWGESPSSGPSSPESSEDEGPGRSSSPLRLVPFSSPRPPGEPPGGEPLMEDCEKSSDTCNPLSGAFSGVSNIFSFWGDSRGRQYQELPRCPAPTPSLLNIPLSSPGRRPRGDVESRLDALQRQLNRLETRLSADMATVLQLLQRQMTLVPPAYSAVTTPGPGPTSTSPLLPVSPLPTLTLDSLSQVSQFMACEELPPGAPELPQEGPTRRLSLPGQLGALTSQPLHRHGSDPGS

[3] = system: Escherichia coli; test: Antibacterial activity against Escherichia coli assessed as inhibition of visible growth incubated for 20 to 24 hrs by microbroth serial dilution assay; format: functional, organism-based; details: time 20-24 hrs
[4] = system: Staphylococcus aureus; test: Antibacterial activity against multi drug-resistant Staphylococcus aureus USA300 FPR3757 assessed as reduction in bacterial growth at 1 times of MIC concentration measured after 24 hrs by time-kill assay; format: functional, organism-based
[5] = system: Staphylococcus aureus; test: (§1) Induction of resistant development in -(6-(6-(Piperazin-1-y1)-9H-purin-9-y)methyl)pyridin-3-y1)-1H-1,2,3-triazol-1-yl)-22-deoxypleuromutilin-16 passages resistance developed Staphylococcus aureus USA300 FPR3757 assessed as fold increase in MIC at sub-MIC concentration measured after 5 passages with conjugate by serial passage assay; format: functional
[6] = system: Staphylococcus aureus; test: as §1, with “after 9” for “after 5”; format: functional
[7] = system: Staphylococcus aureus; test: as §1, with “after 13” for “after 5”; format: functional
[8] = system: Staphylococcus aureus; test: as §1, with “after 22” for “after 5”; format: functional
[9] = system: Staphylococcus aureus; test: as §1, with “after 28” for “after 5”; format: functional
[10] = system: Staphylococcus aureus; test: Induction of resistant development in lefamulin 5 passages resistance developed Staphylococcus aureus USA300 FPR3757 assessed as fold increase in MIC at sub-MIC concentration measured after 28 passages with conjugate by serial passage assay; format: functional
[11] = system: Staphylococcus aureus; test: Induction of resistant development in linezolid 5 passages resistance developed Staphylococcus aureus USA300 FPR3757 assessed as fold increase in MIC at sub-MIC concentration measured after 9 passages with conjugate by serial passage assay; format: functional
[12] = system: Staphylococcus aureus; test: Induction of resistant development in linezolid 5 passages resistance developed Staphylococcus aureus USA300 FPR3757 assessed as fold increase in MIC at sub-MIC concentration measured after 13 passages with conjugate by serial passage assay; format: functional
[13] = system: Staphylococcus aureus; test: Induction of resistant development in linezolid 5 passages resistance developed Staphylococcus aureus USA300 FPR3757 assessed as fold increase in MIC at sub-MIC concentration measured after 18 passages with conjugate by serial passage assay; format: functional
[14] = system: Staphylococcus aureus; test: Induction of resistant development in linezolid 5 passages resistance developed Staphylococcus aureus USA300 FPR3757 assessed as fold increase in MIC at sub-MIC concentration measured after 22 passages with conjugate by serial passage assay; format: functional
[15] = system: Staphylococcus aureus; test: Induction of resistant development in linezolid 5 passages resistance developed Staphylococcus aureus USA300 FPR3757 assessed as fold increase in MIC at sub-MIC concentration measured after 25 passages with conjugate by serial passage assay; format: functional
[16] = system: Staphylococcus aureus; test: Induction of resistant development in linezolid 5 passages resistance developed Staphylococcus aureus USA300 FPR3757 assessed as fold increase in MIC at sub-MIC concentration measured after 28 passages with conjugate by serial passage assay; format: functional
[17] = Cmax in NMRI female mouse at 20 mg/kg, sc by HPLC analysis; format: ADME, organism-based; details: in vivo
[18] = Half life in NMRI female mouse at 20 mg/kg, sc by HPLC analysis; format: ADME, organism-based; details: in vivo
[19] = Clearance in NMRI female mouse at 20 mg/kg, sc by HPLC analysis; format: ADME, organism-based; details: in vivo
[20] = Bioavailability in NMRI female mouse at 20 mg/kg, sc by HPLC analysis; format: ADME, organism-based; details: in vivo
[21] = Tmax in NMRI female mouse at 60 mg/kg, sc by HPLC analysis; format: ADME, organism-based; details: in vivo
[22] = Half life in NMRI female mouse at 60 mg/kg, sc by HPLC analysis; format: ADME, organism-based; details: in vivo
[23] = Clearance in NMRI female mouse at 60 mg/kg, sc by HPLC analysis; format: ADME, organism-based; details: in vivo
[24] = Bioavailability in NMRI female mouse at 60 mg/kg, sc by HPLC analysis; format: ADME, organism-based; details: in vivo
[25] = Cmax in NMRI female mouse at 30 mg/kg, iv by HPLC analysis; format: ADME, organism-based; details: in vivo
[26] = Elimination rate constant in NMRI female mouse at 30 mg/kg, iv by HPLC analysis; format: ADME, organism-based; details: in vivo
[27] = Half life in NMRI female mouse at 30 mg/kg, iv by HPLC analysis; format: ADME, organism-based; details: in vivo
[28] = AUC (0 to infinity) in NMRI female mouse at 30 mg/kg, iv by HPLC analysis; format: ADME, organism-based; details: in vivo
[29] = Clearance in NMRI female mouse at 30 mg/kg, iv by HPLC analysis; format: ADME, organism-based; details: in vivo
[30] = Cmax in NMRI female mouse at 30 mg/kg, po by HPLC analysis; format: ADME, organism-based; details: in vivo
[31] = Tmax in NMRI female mouse at 30 mg/kg, po by HPLC analysis; format: ADME, organism-based; details: in vivo
[32] = Plasma Concentration in pig at 3 mg/kg, iv measured upto 240 mins by LC-MS/MS analysis; format: ADME, organism-based, Sus scrofa
[33] = Elimination rate constant in pig plasma at 3 mg/kg, iv measured upto 240 mins by LC-MS/MS analysis; format: ADME, organism-based, Sus scrofa
[34] = Volume of distribution in pig plasma at 3 mg/kg, iv measured upto 240 mins by LC-MS/MS analysis; format: ADME, organism-based, Sus scrofa
[35] = Cmax in pig urine at 3 mg/kg, iv measured upto 240 mins by LC-MS/MS analysis; format: ADME, organism-based, Sus scrofa
[36] = Tmax in pig urine at 3 mg/kg, iv measured upto 240 mins by LC-MS/MS analysis; format: ADME, organism-based, Sus scrofa
[37] = Elimination rate constant in pig urine at 3 mg/kg, iv measured upto 240 mins by LC-MS/MS analysis; format: ADME, organism-based, Sus scrofa
[38] = AUC (0 to infinity) in pig urine at 3 mg/kg, iv measured upto 240 mins by LC-MS/MS analysis; format: ADME, organism-based, Sus scrofa; details: in vivo, 4 h
[39] = Clearance in pig urine at 3 mg/kg, iv measured upto 240 mins by LC-MS/MS analysis; format: ADME, organism-based, Sus scrofa
[40] = Elimination rate constant in pig plasma at 10 mg/kg, po measured upto 240 mins by LC-MS/MS analysis; format: ADME, organism-based, Sus scrofa
[41] = Half life in pig plasma at 10 mg/kg, po measured upto 240 mins by LC-MS/MS analysis; format: ADME, organism-based, Sus scrofa
[42] = AUC (0 to infinity) in pig plasma at 10 mg/kg, po measured upto 240 mins by LC-MS/MS analysis; format: ADME, organism-based, Sus scrofa; details: in vivo, 4 h
[43] = Tmax in pig urine at 10 mg/kg, po measured upto 240 mins by LC-MS/MS analysis; format: ADME, organism-based, Sus scrofa

Sequence of Cytochrome P450 3A4 (P08684 whole entry): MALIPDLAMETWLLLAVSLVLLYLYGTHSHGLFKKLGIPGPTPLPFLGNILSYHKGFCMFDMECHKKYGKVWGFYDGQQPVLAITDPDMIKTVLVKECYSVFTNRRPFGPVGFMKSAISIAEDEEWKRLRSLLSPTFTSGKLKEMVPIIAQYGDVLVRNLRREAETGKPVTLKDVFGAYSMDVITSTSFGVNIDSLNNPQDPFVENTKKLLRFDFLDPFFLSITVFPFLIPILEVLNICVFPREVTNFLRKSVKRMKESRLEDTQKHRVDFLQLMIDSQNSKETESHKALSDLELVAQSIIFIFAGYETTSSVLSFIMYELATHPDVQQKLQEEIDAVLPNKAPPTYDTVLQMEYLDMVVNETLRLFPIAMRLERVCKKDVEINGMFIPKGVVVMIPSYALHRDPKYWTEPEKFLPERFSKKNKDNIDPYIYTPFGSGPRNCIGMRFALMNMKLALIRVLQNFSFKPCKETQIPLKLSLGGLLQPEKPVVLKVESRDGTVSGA

With `C=C[C@]1(C)C[C@@H](OC(=O)CS[C@@H]2CC[C@@H](N)C[C@H]2O)[C@]2(C)[C@H](C)CC[C@]3(CCC(=O)[C@H]32)[C@@H](C)[C@@H]1O` [LEFAMULIN] the Ki [1] was 0.86 µM, the IC50 [2] was 78.2 µM and the Activity [3] was “inactive”. The Activity [4] was “inactive”, the fold change (FC) [5] was 8 and the fold change (FC) [6] was 8. It also gave a fold change (FC) [7] of 16, a fold change (FC) [8] of 32 and a fold change (FC) [9] of 128. For the same compound, the fold change (FC) [10] was 128, the fold change (FC) [11] was 8 and the fold change (FC) [12] was 16. The fold change (FC) [13] was 16, the fold change (FC) [14] was 32 and the fold change (FC) [15] was 32. For the same compound, the fold change (FC) [16] was 32.
`C=C[C@]1(C)C[C@@H](OC(=O)Cn2cc(-c3ccc(Cn4cnc5c(N6CCNCC6)ncnc54)nc3)nn2)[C@]2(C)[C@H](C)CC[C@]3(CCC(=O)[C@H]32)[C@@H](C)[C@@H]1O` showed a Cmax [17] of 1180 ng/mL, a half-life [18] of 124 min and a CL/F [19] of 90.3 mL/min/kg. For the same compound, the bioavailability [20] was 52%, the Tmax [21] was 15 min and the half-life [22] was 114 min. The CL/F [23] was 140 mL/min/kg, the bioavailability [24] was 33% and the Cmax [25] was 8560 ng/mL. The k el [26] was 0.000218 s⁻¹, the half-life [27] was 52.8 min and the AUC [28] was 643 µg/mL/min. For the same compound, the clearance [29] was 69.8 mL/min/kg, the Cmax [30] was 8.2 ng/mL and the Tmax [31] was 15 min. For the same compound, the concentration at 4 h [32] was 866 ng/mL, the k el at 4 h [33] was 0.000155 s⁻¹ and the Vd [34] was 3.46 L/kg. The Cmax [35] was 18700 ng/mL, the Tmax [36] was 60 min and the k el at 4 h [37] was 0.000418 s⁻¹. For the same compound, the AUC [38] was 821 µg/mL/min, the CL renal at 4 h [39] was 3.67 mL/min/kg and the k el at 4 h [40] was 0.000518 s⁻¹. The half-life [41] was 22.2 min, the AUC [42] was 7.1 µg/mL/min and the Tmax [43] was 60 min.
